Source: patent publication US10287292B2, “CXCR7 antagonists” (CHEMOCENTRYX, INC., priority 2012, dated 2019)

Assays:
CXCR7 receptor [1] = molecular target: T1, CXCR7 receptor (Homo sapiens (Human), UniProt P25106); experiment: Serum Binding Analysis: displacement of 125I-labeled SDF-1 from CXCR7 in 100% human serum; settings: 125I SDF-1 displacement in 100% human serum, MCF-7 and/or MDA-MB-435S CXCR7 transfected cells, 3 hrs at 4° C.; read-out: Avg Ser IC50
Protocol: (§1) The compounds were combined with cells expressing the CXCR7 receptor (e.g., MCF cells or cells transfected to express CXCR7) in the presence of the 125 I-labeled SDF-1 chemokine as detailed in Determination of IC50 values. Reagents and Cells (see below). The ability of the compounds to displace the labeled chemokine from the CXCR7 receptor sites at multiple concentrations was then determined with the screening process.
In Table 1, Avg Bind IC50 refers to the Buffer Binding Analysis described below, while Avg Ser IC50 refers to the Serum Binding Analysis described below. All compounds were prepared as described in the Examples above, or by related methods substituting readily available starting materials.
(§2) ^125I-labeled SDF-1 was purchased from Perkin-Elmer Life Sciences, Inc. (Boston, Mass.). The MCF-7 (adenocarcinoma; mammary gland) cell line was obtained from the American Type Culture Collection (ATCC, Manassas, Va.) or and was cultured in DMEM (Mediatech, Herndon, Va.) supplemented with 10% fetal bovine serum (FBS) (HyClone Logan, Utah) and bovine insulin (0.01 mg/mL) (Sigma. St. Louis, Mo.) at 37° C. in a humidified incubator at a 5% CO2/air mixture. CXCR7 transfected MDA-MB-435S were produced as described below. MDA-MB-435S human breast cancer line, was purchased from ATCC, and cultured in DMEM/10% FBS medium. The complete coding sequence of the gene encoding CXCR7 (a.k.a. CCXCKR2, hRDC1), was isolated from MCF-7 cells using μMACs mRNA isolation kit (Miltenyi Biotec, Auburn, Calif.). DNA contamination was removed by DNase digestion via RNeasy columns (Qiagen, Inc., Valencia, Calif.) and cDNA was generated using GeneAmp RNA PCR Core Kit (Applied Biosystems, Foster City. Calif.). PCR of cDNA samples was performed using Taq PCR Master Mix kit (Qiagen. Inc.) and hRDC1 primers harboring 5′ and 3′ Not I sites (hRDC1F 5′ […]-3, hRDC1R 5′-[…]-3′) Not I digested PCR product was ligated into Not I digested pcDNA3.1(+)(Invitrogen, Carlsbad, Calif.) and screened for orientation and sequence confirmed. Plasmid DNA was then isolated from overnight bacterial cultures by Maxiprep (Qiagen, Inc.). Plasmid DNA (10 μg) was added to MDA-MB-435s cells and cells were electroporated (0.22 kV, 960 uF) via Gene Pulser (Biorad laboratories, Hercules, Calif.). 48 hr post-electroporation, cells were transferred to selection medium (600 ug/ml G418).
In order to more properly assess the binding efficacy of the compounds, radioligand binding assays were carried out in the presence of 100% human serum to more accurately reflect the in vivo environment. […] Target compounds were tested to determine their ability to bind with CXCR7 sites on MCF-7 and/or MDA-MB-435S CXCR7 transfected cells. Efficiency-maxim/zed radioligand binding using filtration protocols as described in Dairaghi D J, et al., HHV8-encoded vMIP-I selectively engages chemokine receptor CCR5. Agonist and antagonist profiles of viral chemokines., J. Biol. Chem. 1999 Jul. 30; 274(31): 21569-74 and Gosling J, et al., Cutting edge: identification of a novel chemokine receptor that binds dendritic cell- and T cell-active chemokines including ELC, SLC, and TECK, J. Immunol. 2000 Mar. 15; 164(6):2851-6 was used.
In these assays, MCF-7 and/or MDA-MB-435S cells were interrogated with the target compounds and the ability of these compounds to displace 125 I radiolabeled SDF-1 was assessed using the protocol described in Dairaghi and Gosling. The target compounds were added to the plate to the indicated concentration followed by addition of cells and radiolabeled chemokine (125I SDF-1), both in the following medium (human AB serum with 10 mM HEPES added to stabilize at pH 7.4). All assays were then incubated for 3 hrs at 4° C. with gentle agitation.

CXCR7 receptor [2] = molecular target: T1, CXCR7 receptor; experiment: Buffer Binding Analysis: displacement of 125I-labeled SDF-1 from CXCR7; settings: 125I SDF-1 displacement, buffer binding medium, MCF-7 and/or MDA-MB-435S CXCR7 transfected cells, 3 hr at 4° C.; read-out: Avg Bind IC50
Protocol: as §1
Compounds that were deemed effective modulators were able to displace at least 50% of the SDF-1 from the CXCR7 receptor at concentrations at or below 15 micromolar (μM) but >2500 nM (+); and more preferably at concentrations from >500 nM to ≤2500 nM (++). At present, especially preferred compounds can displace at least 50% of the SDF-1 from the CXCR7 receptor at concentrations at or below 500 nM (+++). Exemplary compounds that met these criteria are reproduced in Table 1 and the Examples above. In Table 1, Avg Bind IC50 refers to the Buffer Binding Analysis described below, while Avg Ser IC50 refers to the Serum Binding Analysis described below. All compounds were prepared as described in the Examples above, or by related methods substituting readily available starting materials.
as §2
Target compounds can be tested to determine their ability to bind with CXCR7 sites on MCF-7 and/or MDA-MB-435S CXCR7 transfected cells. Efficiency-maxim/zed radioligand binding using filtration protocols as described in Dairaghi D J, et al., HHV8-encoded vMIP-I selectively engages chemokine receptor CCR5. Agonist and antagonist profiles of viral chemokines., J. Biol. Chem. 1999 Jul. 30; 274(31): 21569-74 and Gosling J. et al., Cutting edge: identification of a novel chemokine receptor that binds dendritic cell-and T cell-active chemokines including ELC. SLC, and TECK., J. Immunol. 2000 Mar. 15; 164(6):2851-6 was used.
In these assays, MCF-7 and/or MDA-MB-435S cells are interrogated with the target compounds and the ability of these compounds to displace ^125I radiolabeled SDF-1 assessed using the protocol described in Dairaghi and Gosling. […]

T1 sequence (P25106 whole entry): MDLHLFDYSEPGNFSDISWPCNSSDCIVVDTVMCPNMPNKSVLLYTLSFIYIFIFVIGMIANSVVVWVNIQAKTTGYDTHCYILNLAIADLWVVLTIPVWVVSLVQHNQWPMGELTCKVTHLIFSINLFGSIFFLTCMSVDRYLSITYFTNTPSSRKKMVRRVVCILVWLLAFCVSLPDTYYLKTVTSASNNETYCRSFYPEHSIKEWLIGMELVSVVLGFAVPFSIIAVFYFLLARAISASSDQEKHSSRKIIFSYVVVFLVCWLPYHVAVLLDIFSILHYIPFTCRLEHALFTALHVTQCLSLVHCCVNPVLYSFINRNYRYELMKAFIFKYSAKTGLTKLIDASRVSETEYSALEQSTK

SMILES	IC50 (CXCR7 receptor [1])	IC50 (CXCR7 receptor [2])
CC(C)c1cnc(C(=O)N[C@H]2CCN(c3nccn4cnnc34)C2)nc1 [Compound 1.061]	500 to 2500 nM	–
Cc1cnc(C(=O)N[C@H]2CCN(c3nccn4cccc34)C2)nc1 [Compound 1.063]	500 to 2500 nM	–
O=C(N[C@H]1CCN(c2nccn3ccnc23)C1)c1cnc(N2CCC(O)CC2)cn1 [Compound 1.075]	2500 to 15000 nM	500 to 2500 nM
O=C(N[C@H]1CCN(c2nccn3cnnc23)C1)c1csc(N2CCC(O)CC2)n1 [Compound 1.078]	≤ 500 nM	≤ 500 nM
O=C(N[C@H]1CCN(c2nccn3ccnc23)C1)c1csc(N2CCC(O)CC2)n1 [Compound 1.079]	≤ 500 nM	≤ 500 nM
Cc1ccccc1-c1nc(C(=O)N[C@H]2CCN(c3nccn4cccc34)C2)co1 [Compound 1.080]	500 to 2500 nM	≤ 500 nM
O=C(N[C@H]1CCN(c2nccn3cccc23)C1)c1ccn(-c2ccc(Cl)cn2)n1 [Compound 1.081]	500 to 2500 nM	≤ 500 nM
O=C(N[C@H]1CCN(c2nccn3cccc23)C1)c1noc(C2CCOCC2)n1 [Compound 1.082]	500 to 2500 nM	≤ 500 nM
O=C(N[C@H]1CCN(c2nccn3cccc23)C1)c1nnc(-c2ccccc2)[nH]1 [Compound 1.083]	500 to 2500 nM	≤ 500 nM
O=C(N[C@H]1CCN(c2nccn3cnnc23)C1)c1ccn(-c2ccc(F)cc2)n1 [Compound 1.084]	≤ 500 nM	≤ 500 nM
Cc1ccc2nc(C(=O)N[C@H]3CCN(c4nccn5cccc45)C3)ncc2c1 [Compound 1.085]	≤ 500 nM	≤ 500 nM
O=C(N[C@H]1CCN(c2nccn3ccnc23)C1)c1ccn(C2CCOCC2)n1 [Compound 1.086]	500 to 2500 nM	500 to 2500 nM
O=C(N[C@H]1CCN(c2nccn3cnnc23)C1)c1ccn(C2CCOCC2)n1 [Compound 1.087]	500 to 2500 nM	2500 to 15000 nM
O=C(N[C@H]1CCN(c2nccn3cccc23)C1)c1ccn(C2CCOCC2)n1 [Compound 1.088]	≤ 500 nM	≤ 500 nM
O=C(N[C@H]1CCN(c2nccn3cnnc23)C1)c1ncn(-c2ccc(F)cc2)n1 [Compound 1.089]	≤ 500 nM	≤ 500 nM
O=C(N[C@H]1CCN(c2nccn3ccnc23)C1)c1ncn(-c2ccccc2)n1 [Compound 1.091]	≤ 500 nM	≤ 500 nM
O=C(N[C@H]1CCN(c2nccn3ccnc23)C1)c1ccn(-c2ccc(F)cc2)n1 [Compound 1.092]	≤ 500 nM	≤ 500 nM
O=C(N[C@H]1CCN(c2nccn3cccc23)C1)c1ncc(-c2ccccc2)cn1 [Compound 1.093]	≤ 500 nM	≤ 500 nM
Cc1cc(Cl)ccc1-n1ccc(C(=O)N[C@H]2CCN(c3nccn4cccc34)C2)n1 [Compound 1.094]	≤ 500 nM	≤ 500 nM
O=C(N[C@H]1CCN(c2nccn3cccc23)C1)c1coc(-c2ccc(F)cc2)n1 [Compound 1.095]	≤ 500 nM	≤ 500 nM
O=C(N[C@H]1CCN(c2nccn3cccc23)C1)c1csc(-c2ccc(F)cc2)n1 [Compound 1.096]	≤ 500 nM	≤ 500 nM
Cc1ccn2ccnc(N3CC[C@H](NC(=O)c4ccn(-c5cccc(F)c5)n4)C3)c12 [Compound 1.099]	≤ 500 nM	≤ 500 nM
Cc1ccn2ccnc(N3CC[C@H](NC(=O)c4ccn(-c5ccc(Cl)c(F)c5)n4)C3)c12 [Compound 1.100]	2500 to 15000 nM	≤ 500 nM
Cc1ccn2ccnc(N3CC[C@H](NC(=O)c4ccn(-c5ccccc5CC#N)n4)C3)c12 [Compound 1.101]	500 to 2500 nM	≤ 500 nM
O=C(N[C@H]1CCN(c2nccn3ccnc23)C1)c1ccn(-c2ccc(Cl)cc2)n1 [Compound 1.102]	≤ 500 nM	≤ 500 nM
Cc1cc(Cl)ccc1-n1ccc(C(=O)N[C@H]2CCN(c3nccn4ccc(C)c34)C2)n1 [Compound 1.103]	500 to 2500 nM	≤ 500 nM
Cc1ccn2ccnc(N3CC[C@H](NC(=O)c4ccn(-c5ccc(Cl)cc5)n4)C3)c12 [Compound 1.104]	2500 to 15000 nM	≤ 500 nM
Cc1ccn2ccnc(N3CC[C@H](NC(=O)c4csc(-c5ccccc5)n4)C3)c12 [Compound 1.105]	500 to 2500 nM	≤ 500 nM
Cc1ccn2ccnc(N3CC[C@H](NC(=O)c4ccn(-c5ccc(F)cc5)n4)C3)c12 [Compound 1.106]	500 to 2500 nM	≤ 500 nM

Results, then the molecule that gave them:

IC50 (CXCR7 receptor [1])	IC50 (CXCR7 receptor [2])	SMILES
≤ 500 nM	–	O=C(NC1CN(c2nccn3cccc23)C[C@@H]1O)c1ccn(-c2ccc(F)cc2)n1 (some centres unmarked) [Compound 1.062]
≤ 500 nM	–	CC(C)c1cnc(C(=O)N[C@H]2CCN(c3nccn4ccnc34)C2)nc1 [Compound 1.064]
≤ 500 nM	–	CCc1cnc(C(=O)N[C@H]2CCN(c3nccn4cccc34)C2)nc1 [Compound 1.065]
≤ 500 nM	–	O=C(N[C@H]1CCN(c2nccn3cnnc23)C1)c1csc(-c2ccccc2)n1 [Compound 1.066]
≤ 500 nM	–	O=C(N[C@H]1CCN(c2nccn3ncnc23)C1)c1ccn(-c2ccc(F)cc2)n1 [Compound 1.067]
≤ 500 nM	–	O=C(N[C@H]1CCN(c2nccn3cnnc23)C1)c1coc(-c2ccccc2)n1 [Compound 1.069]
≤ 500 nM	–	O=C(N[C@H]1CCN(c2nccn3ccnc23)C1)c1coc(-c2ccccc2)n1 [Compound 1.070]
≤ 500 nM	–	O=C(N[C@H]1CCN(c2nccn3cccc23)C1)c1ncc(C2CC2)cn1 [Compound 1.071]
≤ 500 nM	–	O=C(NC1(CO)CCN(c2nccn3cccc23)C1)c1csc(N2CCC(O)CC2)n1 (centres unmarked) [Compound 1.072]
≤ 500 nM	–	O=C(NC1(CO)CCN(c2nccn3cccc23)C1)c1ccn(-c2ccc(F)cc2)n1 (centres unmarked) [Compound 1.073]
≤ 500 nM	–	O=C(NC1(CO)CCN(c2nccn3cccc23)C1)c1ccn(-c2ccc(Cl)cc2)n1 (centres unmarked) [Compound 1.074]
≤ 500 nM	≤ 500 nM	O=C(N[C@H]1CCN(c2nccn3cccc23)C1)c1ncc(-c2ccc(F)cc2)cn1 [Compound 1.076]
≤ 500 nM	≤ 500 nM	CC(C)c1cnc(C(=O)N[C@H]2CCN(c3nccn4cccc34)C2)nc1 [Compound 1.077]
